# Experimental data: patent US20180333382A1, “PHARMACEUTICAL COMPOSITIONS COMPRISING DGLA AND USE OF SAME” (DS Biopharma Limited, priority 2017, published 2018)
# Test system: patients with moderate to severe atopic dermatitis
# Experiment: Phase II study of oral DS107G vs placebo: IGA, EASI, SCORAD, pruritus VAS, BSA, POEM, DLQI
# Assay type: in vivo, human
# Design: key to EASI, Actual, Median / EASI, Actual, Mean: EASI composite score, range 0-72
# Conditions: for Percentage Change of BSA Levels From Baseline, Mean / Percentage Change of DLQI Scores From Baseline, Mean / Percentage Change of EASI Scores From Baseline, Mean / Percentage Change of IGA Scores From Baseline, Mean / Percentage Change of POEM Scores From Baseline, Mean / Percentage Change of SCORAD Levels From Baseline, Mean / Percentage Change of VAS Scores From Baseline, Mean: ITT Population
# Experimental: A randomized, double-blind, placebo-controlled, phase II study was performed to assess the efficacy and safety of orally administered DS107G (DGLA) to patients with moderate to severe atopic dermatitis. The primary objective of the study was to compare the efficacy of orally administered DS107G capsules, versus placebo, in the treatment of adult patients with moderate to severe atopic dermatitis. The secondary objective was to assess the safety of orally administered DS107G capsules, versus placebo, in adult patients with moderate to severe atopic dermatitis. The primary study endpoint was the proportion of patients achieving an IGA (Investigator Global Assessment) of 0 (clear) or 1 (almost clear) and a decrease of at least 2 points in IGA at week 8. Secondary study endpoints included:
# Approximately 100 patients with moderate to severe atopic dermatitis were included in this multicenter, double-blind, placebo controlled, phase IIa study. All subjects signed an informed consent and underwent screening for study eligibility. Subjects were randomized (1:1) at baseline visit to either receive oral DS107G 2 g or placebo, once daily for 8 weeks in a fasting state.
# Subjects visited the clinic on 6 occasions: at screening, baseline, week 2, week 4, week 8 (end of treatment/early termination) and week 10 (follow-up). All subjects exited the study at the week 10 visit. The primary efficacy variable was the proportion of patients achieving an IGA of 0 (clear) or 1 (almost clear), and a decrease of at least 2 points in IGA at week 8. Secondary efficacy variables included: IGA at other visits, pruritus (obtained from the SCORAD visual analog scale), EASI, BSA, POEM, DLQI, SCORAD and TEWL (for selected sites only). Safety was assessed through adverse events, physical examination, vital signs and safety laboratory tests (including pregnancy tests for women of childbearing potential). Pharmacokinetic samples were obtained at Baseline (Day 0), week 4 and week 8 visits in order to measure total and free DGLA plasma trough levels. Separate plasma samples were retained for later analysis of total fatty acid profile and interleukin profile.
# The EASI is a composite score ranging from 0-72 that takes into account the degree of erythema, induration/papulation, excoriation, and lichenification (each scored from 0 to 3 separately) for each of four body regions, with adjustment for the percent of BSA involved for each body region and for the proportion of the body region to the whole body. A detailed procedure of EASI score calculation is provided below.
# SCORAD is calculated as follows: Six items (erythema, edema/papulation, oozing/crusts, excoriation, lichenification, and dryness) are selected to evaluate the AD severity. The intensity of each item is graded using a 4-point scale: • 0=No symptoms • 1=Mild • 2=Moderate • 3=Severe
# Investigator's global assessment is determined as follows:
# Body Surface Area (BSA). The overall BSA affected by AD will be evaluated (from 0 to 100%) at each visit. One patient's palm represents 1% of his/her total BSA. For all study visits, except at screening, the BSA of involved skin will be measured with the SCORAD measurement and evaluated as a separate endpoint.
# The Patient-Oriented Eczema Measure (POEM) is determined using the following questionnaire:
# The Dermatology Life Quality Index (DLQI) is determined using the following questionnaire:
# Subjects who fulfilled all the inclusion and none of the exclusion criteria were accepted in the study. Each subject read and signed an informed consent form prior to any screening procedures being performed. This study involved a comparison of DS107G (DGLA) with placebo, administered orally once daily upon waking for a total duration of 8 weeks. Subjects were randomized to one of the two treatment groups in a 1:1 ratio:
# The Investigator's Global Assessment (IGA) of Disease Severity was assessed at each visit. The IGA is a global assessment of the current state of the disease. […]
# [1] = DS107 Phase 2a I.T.T. population, daily, 8 weeks
# [2] = Table 9A: title Week 4, head Week 8/ET, n=34
# [3] = Table 9A: title Week 4, head Week 8/ET, n=35
# [4] = Week 8, ITT total population, N=51
# [5] = Week 8, ITT, Moderate at baseline
# [6] = Week 8, ITT, Very Severe/Severe at baseline
# [7] = Week 8/ET, DS107G 2 g once daily, n=35
# [8] = total study population, oral, once daily, 8 weeks
smiles,measurement,setting,value
"CCCCC/C=C\C/C=C\C/C=C\CCCCCCC(=O)O [DS107G, Dihomo gamma linolenic acid]","patients classified as Responders (IGA 0 or 1 at Week 8, 2-point decrease)",African America patients,56%
same,"patients classified as Responders (IGA 0 or 1 at Week 8, 2-point decrease)",Caucasian patients,7%
same,BSA Change from Baseline,[1],−38%
same,EASI Percentage Change from Baseline,[1],−46%
same,EASI-50 (%),[1],57%
same,EASI-75 (%),[1],37%
same,IGA responder (%),[1],21%
same,Pruritus Percentage Change from Baseline,[1],−41%
same,"Percentage Change of BSA Levels From Baseline, Mean",Week 2,−6.3%
same,"Percentage Change of DLQI Scores From Baseline, Mean",Week 2,−29.5%
same,"Percentage Change of EASI Scores From Baseline, Mean",Week 2,−15.0%
same,"Percentage Change of IGA Scores From Baseline, Mean",Week 2,−11.7%
same,"Percentage Change of POEM Scores From Baseline, Mean",Week 2,−30.2%
same,"Percentage Change of SCORAD Levels From Baseline, Mean",Week 2,−12.0%
same,"Percentage Change of VAS Scores From Baseline, Mean",Week 2,−20.9%
same,"Percentage Change of BSA Levels From Baseline, Mean",Week 4,−21.9%
same,"Percentage Change of DLQI Scores From Baseline, Mean",Week 4,−50.3%
same,"Percentage Change of EASI Scores From Baseline, Mean",Week 4,−37.7%
same,"Percentage Change of IGA Scores From Baseline, Mean",Week 4,−25.7%
same,"Percentage Change of POEM Scores From Baseline, Mean",Week 4,−41.8%
same,"Percentage Change of SCORAD Levels From Baseline, Mean",Week 4,−28.8%
same,"Percentage Change of VAS Scores From Baseline, Mean",Week 4,−39.5%
same,"Percentage Change of BSA Levels From Baseline, Mean",Week 8,−38.2%
same,"Percentage Change of DLQI Scores From Baseline, Mean",Week 8,−43.2%
same,"Percentage Change of EASI Scores From Baseline, Mean",Week 8,−45.6%
same,"Percentage Change of IGA Scores From Baseline, Mean",Week 8,−38.4%
same,"Percentage Change of POEM Scores From Baseline, Mean",Week 8,−37.2%
same,"Percentage Change of SCORAD Levels From Baseline, Mean",Week 8,−36.1%
same,"Percentage Change of VAS Scores From Baseline, Mean",Week 8,−41.0%
same,"Percentage Change of BSA Levels From Baseline, Mean",Week 10,−37.7%
same,"Percentage Change of DLQI Scores From Baseline, Mean",Week 10,−53.6%
same,"Percentage Change of EASI Scores From Baseline, Mean",Week 10,−49.5%
same,"Percentage Change of IGA Scores From Baseline, Mean",Week 10,−37.5%
same,"Percentage Change of POEM Scores From Baseline, Mean",Week 10,−43.4%
same,"Percentage Change of SCORAD Levels From Baseline, Mean",Week 10,−40.5%
same,"Percentage Change of VAS Scores From Baseline, Mean",Week 10,−44.2%
same,primary end point (two point drop in IGA and end of treatment IGA of 0 or 1) vs placebo,"ITT analysis, p=0.057",clinically significant trend
same,"visual analog scale of pruritus, Change from baseline, LSMEANS",[2],−2.1
same,"visual analog scale of pruritus, Change from baseline, Mean",[2],−2.8
same,"visual analog scale of pruritus, Change from baseline, Median",[2],−2.0
same,"visual analog scale of pruritus, Percent Change from Baseline, Mean",[2],−41.0%
same,"visual analog scale of pruritus, Percent Change from Baseline, Median",[2],−35.3%
same,"visual analog scale of pruritus, Actual, Mean",[3],4.6
same,"visual analog scale of pruritus, Actual, Median",[3],4.0
same,"visual analog scale of pruritus, Change from baseline, LSMEANS","Table 9B: Week 8/ET, n=34",−2.1
same,"visual analog scale of pruritus, Change from baseline, Mean","Table 9B: Week 8/ET, n=34",−2.8
same,"visual analog scale of pruritus, Change from baseline, Median","Table 9B: Week 8/ET, n=34",−2.0
same,"visual analog scale of pruritus, Percent Change from Baseline, Mean","Table 9B: Week 8/ET, n=34",−41.0%
same,"visual analog scale of pruritus, Percent Change from Baseline, Median","Table 9B: Week 8/ET, n=34",−35.3%
same,"visual analog scale of pruritus, Actual, Mean","Table 9B: Week 8/ET, n=35",4.6
same,"visual analog scale of pruritus, Actual, Median","Table 9B: Week 8/ET, n=35",4.0
same,IGA score 0—Clear,[4],4 ( 7.8) n (%)
same,IGA score 1—Almost Clear,[4],7 ( 13.7) n (%)
same,IGA score 2—Mild,[4],9 ( 17.6) n (%)
same,IGA score 3—Moderate,[4],10 ( 19.6) n (%)
same,IGA score 4—Severe,[4],4 ( 7.8) n (%)
same,IGA score 5—Very Severe,[4],1 ( 2.0) n (%)
same,Non-Responders,[4],37 ( 72.5) n (%)
same,Responders (decrease of at least 2 points in IGA score at Week 8),[4],14 ( 27.5) n (%)
same,IGA score 0—Clear,[5],4 (13.8) n (%)
same,IGA score 1—Almost Clear,[5],4 (13.8) n (%)
same,IGA score 2—Mild,[5],6 (20.7) n (%)
same,IGA score 3—Moderate,[5],4 (13.8) n (%)
same,IGA score 4—Severe,[5],1 (3.4) n (%)
same,IGA score 5—Very Severe,[5],0 (0.0) n (%)
same,Non-Responders,[5],21 (72.4) n (%)
same,Responders,[5],8 (27.6) n (%)
same,IGA score 0—Clear,[6],0 (0.0) n (%)
same,IGA score 1—Almost Clear,[6],3 (13.6) n (%)
same,IGA score 2—Mild,[6],3 (13.6) n (%)
same,IGA score 3—Moderate,[6],6 (27.3) n (%)
same,IGA score 4—Severe,[6],3 (13.6) n (%)
same,IGA score 5—Very Severe,[6],1 (4.5) n (%)
same,Non-Responders,[6],16 (72.7) n (%)
same,Responders,[6],6 (27.3) n (%)
same,"EASI, Actual, Mean",[7],9.3
same,"EASI, Actual, Median",[7],7.4
same,"EASI, Change from baseline, LSMEANS (ANCOVA)",[7],−8.0
same,"EASI, Change from baseline, Mean",[7],−9.4
same,"EASI, Change from baseline, Median",[7],−8.0
same,"EASI, Percent Change from Baseline, Mean",[7],−45.6%
same,"EASI, Percent Change from Baseline, Median",[7],−62.7%
same,"SCORAD, Change from baseline, LSMEANS","Week 8/ET, n=34",−18.7
same,"SCORAD, Change from baseline, Mean","Week 8/ET, n=34",−21.1
same,"SCORAD, Change from baseline, Median","Week 8/ET, n=34",−21.2
same,"SCORAD, Percent Change from Baseline, Mean","Week 8/ET, n=34",−36.1%
same,"SCORAD, Percent Change from Baseline, Median","Week 8/ET, n=34",−43.4%
same,"SCORAD, Actual, Mean","Week 8/ET, n=35",35.9
same,"SCORAD, Actual, Median","Week 8/ET, n=35",28.6
same,"body surface area affected by atopic dermatitis, Actual, Mean","Week 8/ET, n=35",17.6
same,"body surface area affected by atopic dermatitis, Actual, Median","Week 8/ET, n=35",12.0
same,"body surface area affected by atopic dermatitis, Change from baseline, LSMEANS","Week 8/ET, n=35",−8.9
same,"body surface area affected by atopic dermatitis, Change from baseline, Mean","Week 8/ET, n=35",−9.6
same,"body surface area affected by atopic dermatitis, Change from baseline, Median","Week 8/ET, n=35",−8.0
same,"body surface area affected by atopic dermatitis, Percent Change from Baseline, Mean","Week 8/ET, n=35",−38.2%
same,"body surface area affected by atopic dermatitis, Percent Change from Baseline, Median","Week 8/ET, n=35",−50.0%
same,response rate in subjects having low baseline eosinophil counts,in vivo,higher response rate
same,primary end point (two point drop in IGA and end of treatment IGA of 0 or 1) vs placebo,"moderate patient subgroup (n=67), p=0.036",statistically significant improvement
same,EASI (% decrease),[8],46%
same,IGA responders (%),[8],22%
same,Pruritus delta (as measured by VAS),[8],41%
same,Pruritus score decrease (as measured by VAS),[8],c. (2.8)
same,SCORAD (% decrease),[8],36%
same,pruritus score [visual analog scale] vs placebo,"within four weeks of dosing, p=0.015",statistically significant reduction of itch
